According to PMC5958115, “A novel small molecule chaperone of rod opsin and its potential therapy for retinal degeneration” (Nature Communications, 2018):

How the values were obtained:
Abca4−/−Rdh8−/− mice = assay: Bright light-induced retinal degeneration (SD-OCT, HE staining); type: in vivo, mouse; details: 50 or 200 mg kg^−1 bw i.p. 30 min before 10,000 lux for 30 min; day 7
Experimental: Abca4^−/−Rdh8^−/− [42] mice with a 129 Sv/Ev or C57BL/6 mixed background were used for light-induced retinal degeneration assays. […] Male and female C57BL/6 mice (Jackson Laboratory, Bar Harbor, ME) at 6 weeks of age were used to test the effects of YC-001 treatment on the retinoid cycle and bw as well as to determine parenterally administrated YC-001 entering the eyes. YC-001 was dissolved in DMSO at 80–160 mg mL^−1, and the solution was provided to mice by i.p. injection. All mice were housed and maintained in a 12 h light (≤10 lux)/12 h dark cycle in the Animal Resource Center at the School of Medicine, CWRU. […]
Retinal degeneration was initiated by exposing Abca4^−/−Rdh8^−/− mice for 30 min to white light with an intensity of 10,000 lux (150-W spiral lamp, Hampton Bay, Home Depot, Atlanta, GA USA)[43]. […] Retinal structures were analyzed by SD-OCT seven days after bright light exposure. […]
To assess the effect of YC-001 treatment on Abca4^−/−Rdh8^−/− mice following bright light-induced retinal degeneration, we performed ultrahigh-resolution SD-OCT (Bioptigen, Morrisville, NC) for in vivo imaging of mouse retinas. […] To measure changes to photoreceptors in the retinas challenged with bright light and assess the effect of YC-001 on retinal protection, the thickness of the ONL was measured along the scanned SD-OCT image at 8 points from the nasal to temporal end of the retina. […]

C57BL/6 mice = assay: Retinoid cycle analysis: 11-cis-retinyl-oxime recovery after bleaching; type: in vivo, mouse; details: 200 mg kg^−1 bw i.p. 30 min before 10,000 lux 10 min; vs DMSO
Experimental: To test if treatment with YC-001 affects visual pigment regeneration, we quantified the 11-cis-retinyl-oxime extracted from retinas of C57BL/6 mice after different periods of dark adaptation following exposure to bright light. Mice at 6 weeks of age were administered YC-001 at 200 mg kg^−1 bw via i.p. injection. At 30 min following YC-001 administration, eyes were dilated with 1% tropicamide. Mice then were anesthetized with a cocktail containing 20 mg mL^−1 of ketamine and 1.75 mg mL^−1 of xylazine at a dose of 4 μL g^−1 bw. Anesthetized mice were exposed to bright light with an intensity of 10,000 lux for 10 min to bleach about 90% of the rhodopsin pigment. Mice then were returned to the dark for recovery. Animals then were euthanized at 0, 2, 4, 6 or 24 h after bleaching and recovery in the dark, and their eyes were removed and homogenized in 1 mL of 1:1 PBS:ethanol mixture (v/v) containing 40 mM hydroxylamine. […] 11-cis-Retinyl-oxime released from the regenerated rhodopsin pigments were separated on an Agilent Sil column (5 µm, 4.6 × 250 mm) with an isocratic flow of 10% ethyl acetate in hexanes (1.5 mL min^−1) and detected at 325 nm. Amounts of 11-cis-retinyl-oximes per eye were quantified by normalizing the peak area to an 11-cis-retinyl-oxime standard. 11-cis-Retinyl-oximes were quantified in three eye samples per condition, and the means and s.d.s were calculated.

SMILES: O=C1OCC(c2ccc(Cl)s2)=C1c1cccs1 [YC-001]
- protection of the ONL from light-induced damage (Abca4−/−Rdh8−/− mice): dose-dependent protection of the ONL
- recovery of 11-cis-retinyl-oxime after bleaching (C57BL/6 mice): little difference
